{"source": "paper PMC8358040", "about": "“The enzymatic activity of inositol hexakisphosphate kinase controls circulating phosphate in mammals” (Nature Communications, 2021)", "key": {"[1]": {"test_system": "phosphate excretion in faeces", "assay": "Cumulative 32P activity in faeces of rats administered NaH2 32PO4", "assay_type": "in vivo, rat", "settings": "for Cumulative 32P activity in the faeces: lanthanum carbonate 1000 mg/kg 7th dose", "experimental": "(§1) The experiment was performed using 8-week-old SD rats (CLEA Japan, Inc.). Male rats were randomly sorted into different groups based on their body weight (n = 5). […] After a 1 h treatment, NaH2^32PO4 solution (11 μCi/2 mL/rat) was administered orally. Following NaH2^32PO4 administration, rats were placed in metabolic cages, and faeces and urine were collected up to 72 h later. The compound was administered once a day during the 72 h experiment. […] The radioactivity (%) in the faecal and urine samples was calculated by setting the radioactivity of the administered NaH2^32PO4 to 100 %."}, "[2]": {"test_system": "phosphate excretion in urine", "assay": "Cumulative 32P activity in urine of rats administered NaH2 32PO4", "assay_type": "in vivo, rat", "settings": "lanthanum carbonate 1000 mg/kg 7th dose", "experimental": "as §1"}, "[3]": {"assay": "Plasma concentration of SC-919 in bilaterally nephrectomized rats", "assay_type": "in vivo, rat", "settings": "bilaterally nephrectomised rats, 0.3 mg/kg oral, 5 h, individual animals (Fig4e)", "experimental": "The experiment was performed with 9-week-old male SD rats (CLEA Japan, Inc.). For bilateral nephrectomy, rats were fasted for 16 h and were subcutaneously injected with buprenorphine (0.05 mg/kg, Otsuka). Thirty minutes later, the rats were anesthetized using isoflurane (3% v/v) and kept on thermal pads at 37 °C with isoflurane (2% v/v). The left and right abdomen and the neck were shaved with a clipper. The surgical site was disinfected with a chlorhexidine-containing antiseptic solution, and the aesthetic state was confirmed by the disappearance of the pain reflex. The skin was incised to expose the kidney, and the renal artery and vein were ligated, which was followed by the isolation of the kidney. […] A sham operation group (n = 6), without nephrectomy, was prepared following the same procedure. After completion of the operation, meloxicam (1 mg/kg) was subcutaneously administered once a day during the study. One day after the operation, anaesthesia was introduced using the procedure described above, and blood was collected from the jugular vein."}, "[4]": {"assay": "Plasma concentration of SC-919, single-dose study in normal monkeys", "assay_type": "in vivo, cynomolgus monkey", "settings": "0.3 mg/kg oral, time 1, individual animals (Fig3c)", "experimental": "The experiments were performed at Hamamatsu Pharma Research, Inc. (Hamamatsu, Shizuoka, Japan), which is accredited by the American Association for Accreditation of Laboratory Animal Care. Male cynomolgus monkeys were housed in a room with controlled temperature, humidity, and lighting (12 h light/dark cycle). All monkeys were fed a regular diet (100 g/day, PS-A, Oriental Yeast Co., Ltd.) and had free access to tap water. The experiments were performed when the animals were 3–4 years old. The monkeys were randomized into different groups based on plasma phosphate, body weight (2.6–4.7 kg), and age (n = 6). Corn oil (FUJIFILM Wako) was used as a vehicle. […] Blood was collected from the cephalic vein, saphenous vein, or the femoral vein using a disposable syringe and needle at the indicated timepoints for the measurement of phosphate levels in the plasma. The concentration of the compound in the plasma was measured at the same timepoints (n = 6)."}, "[5]": {"assay": "Plasma concentration of SC-919 in adenine-treated rats (sub-chronic dose study)"}, "[6]": {"assay": "Plasma concentration of SC-919, single-dose study in normal rats", "assay_type": "in vivo, rat", "experimental": "The experiment was performed with 8-week-old male SD rats (CLEA Japan, Inc.). […] The concentration of the compound in the plasma was measured at the same timepoints (n = 3)."}, "human IP6K2": {"target": "T1, human IP6K2 (Homo sapiens, UniProt Q9UHH9)", "T1 sequence (Q9UHH9 1-426)": "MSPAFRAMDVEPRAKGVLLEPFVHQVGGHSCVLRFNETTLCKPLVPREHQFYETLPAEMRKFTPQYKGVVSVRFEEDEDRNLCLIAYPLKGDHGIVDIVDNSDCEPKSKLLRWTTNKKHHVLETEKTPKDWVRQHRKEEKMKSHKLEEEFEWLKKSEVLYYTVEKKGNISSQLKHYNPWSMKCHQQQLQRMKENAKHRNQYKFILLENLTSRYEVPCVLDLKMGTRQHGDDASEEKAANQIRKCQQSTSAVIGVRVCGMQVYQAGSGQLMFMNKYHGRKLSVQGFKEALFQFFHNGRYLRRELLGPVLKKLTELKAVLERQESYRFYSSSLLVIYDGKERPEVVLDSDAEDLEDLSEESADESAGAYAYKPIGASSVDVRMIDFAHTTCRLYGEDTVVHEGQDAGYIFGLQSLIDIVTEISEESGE", "assay": "ADP-Glo kinase assay for IP6K activity", "settings": "read-out: IC50 IP6K2; recombinant human IP6K2 12 nM, ATP 15 μM, InsP6 50 μM, 2 h; mean ± S.D."}, "human IP6K1": {"target": "T2, human IP6K1 (Homo sapiens, UniProt Q92551)", "T2 construct": "made in house; host or cells: Sf9 insect cells (baculovirus)", "T2 sequence (Q92551 whole entry)": "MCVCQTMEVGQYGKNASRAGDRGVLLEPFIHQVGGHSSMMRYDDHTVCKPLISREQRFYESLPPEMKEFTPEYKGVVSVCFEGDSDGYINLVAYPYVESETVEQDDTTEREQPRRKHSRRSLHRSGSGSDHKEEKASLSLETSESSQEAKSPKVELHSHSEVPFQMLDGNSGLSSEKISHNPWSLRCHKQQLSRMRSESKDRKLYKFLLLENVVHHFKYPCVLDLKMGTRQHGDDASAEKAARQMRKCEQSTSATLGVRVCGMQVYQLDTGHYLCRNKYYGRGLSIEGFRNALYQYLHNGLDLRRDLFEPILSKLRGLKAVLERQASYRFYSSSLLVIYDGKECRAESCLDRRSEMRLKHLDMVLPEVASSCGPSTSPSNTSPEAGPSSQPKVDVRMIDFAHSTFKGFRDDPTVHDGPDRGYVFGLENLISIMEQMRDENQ", "assay": "ADP-Glo kinase assay for IP6K activity", "assay_type": "biochemical", "settings": "recombinant human IP6K1 15 nM, ATP 15 μM, InsP6 50 μM, 2 h; mean ± S.D."}, "human IP6K3": {"target": "T3, human IP6K3 (Homo sapiens, UniProt Q96PC2)", "T3 sequence (Q96PC2 1-410)": "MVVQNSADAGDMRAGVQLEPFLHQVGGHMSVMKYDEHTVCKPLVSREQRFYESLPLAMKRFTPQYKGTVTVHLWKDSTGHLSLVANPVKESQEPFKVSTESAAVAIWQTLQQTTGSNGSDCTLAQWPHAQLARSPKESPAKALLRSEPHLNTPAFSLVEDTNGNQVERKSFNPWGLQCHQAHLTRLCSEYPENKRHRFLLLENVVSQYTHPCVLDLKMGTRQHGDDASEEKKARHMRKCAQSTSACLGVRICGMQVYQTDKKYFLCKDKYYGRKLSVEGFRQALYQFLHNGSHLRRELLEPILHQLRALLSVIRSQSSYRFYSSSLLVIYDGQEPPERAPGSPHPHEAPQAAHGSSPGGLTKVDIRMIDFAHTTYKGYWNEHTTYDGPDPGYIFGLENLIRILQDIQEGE", "assay": "ADP-Glo kinase assay for IP6K activity", "settings": "read-out: IC50 IP6K3; recombinant human IP6K3 […], ATP 15 μM, InsP6 50 μM, 2 h; mean ± S.D."}}, "note": "Values joined by “and” are separate entries in the source; they are usually repeats but may differ in a detail not shown here. Equal values may be shown once.", "data": [{"compound": "O=C([O-])[O-].O=C([O-])[O-].O=C([O-])[O-].[La+3].[La+3]", "note": "[Lanthanum carbonate]", "values": [{"measurement": "32P activity / phosphate excretion in faeces vs vehicle", "setting": "[1]; in words", "result": "increased"}, {"measurement": "Cumulative 32P activity in the faeces", "setting": "[1]; 48 h (Fig3f)", "result": "53.2569% and 73.3985% and 64.9027% and 66.783% and 73.7253%"}, {"measurement": "Cumulative 32P activity in the faeces", "setting": "[1]; 72 h (Fig3f)", "result": "53.7862% and 74.2778% and 65.7229% and 68.7476% and 74.3353%"}, {"measurement": "Cumulative 32P activity in the urine", "setting": "[2]; 8 h (Fig3g)", "result": "0.04647% and 0.2136% and 1.254% and 0.632% and 0.6628%"}, {"measurement": "Cumulative 32P activity in the urine", "setting": "[2]; 24 h (Fig3g)", "result": "0.658% and 2.356% and 3.626% and 2.673% and 3.04%"}, {"measurement": "Cumulative 32P activity in the urine", "setting": "[2]; 48 h (Fig3g)", "result": "0.8554% and 3.259% and 4.427% and 3.818% and 3.918%"}, {"measurement": "Cumulative 32P activity in the urine", "setting": "[2]; 72 h (Fig3g)", "result": "1.078% and 3.901% and 5.067% and 4.576% and 4.362%"}]}, {"compound": "O=C(O)c1ccc2c(c1)[C@]1(CC[C@H](Oc3ncc(Cl)cc3Cl)CC1)C(=O)N2", "note": "[SC-919]", "values": [{"measurement": "Concentration of SC-919 (plasma)", "setting": "[3]", "result": "541.632 and 264.446 and 202.061 and 200.786 and 379.989 and 301.737 and 410.34"}, {"measurement": "Concentration of SC-919 in plasma", "setting": "[4]", "result": "40.468 and 0.000 and 7.073 and 24.376 and 2.454 and 13.910"}, {"measurement": "Concentration of SC-919 (plasma)", "setting": "[5]; 1 mg/kg oral, initial dose, time 2, individual animals (Fig4a), 1 mg/kg", "result": "928.621 and 807.664 and 876.622"}, {"measurement": "Concentration of SC-919 (plasma)", "setting": "[5]; 1 mg/kg, initial dose, time 6 (Fig4a)", "result": "850.061 and 949.996 and 720.403"}, {"measurement": "Concentration of SC-919 (plasma)", "setting": "[5]; 1 mg/kg, seventh dose, time 2 (Fig4c)", "result": "2909.926 and 3195.472 and 1783.864"}, {"measurement": "Concentration of SC-919 (plasma)", "setting": "[5]; 1 mg/kg, seventh dose, time 6 (Fig4c)", "result": "2957.483 and 3182.718 and 1810.036"}, {"measurement": "Concentration of SC-919 (plasma)", "setting": "[5]; 1 mg/kg, seventh dose, time 24 (Fig4c)", "result": "2238.331 and 2202.619 and 1356.448"}, {"measurement": "Concentration of SC-919 (plasma)", "setting": "[5]; 10 mg/kg, initial dose, time 2 (Fig4a)", "result": "5701.725 and 5986.890 and 6856.247"}, {"measurement": "Concentration of SC-919 (plasma)", "setting": "[5]; 10 mg/kg, initial dose, time 6 (Fig4a)", "result": "4444.794 and 6665.965 and 6592.043"}, {"measurement": "Concentration of SC-919 (plasma)", "setting": "[5]; 10 mg/kg, initial dose, time 24 (Fig4a)", "result": "2595.707 and 5143.151 and 4143.702"}, {"measurement": "Concentration of SC-919 (plasma)", "setting": "[5]; 10 mg/kg, seventh dose, time 2 (Fig4c)", "result": "8573.125 and 12574.890 and 8591.283"}, {"measurement": "Concentration of SC-919 (plasma)", "setting": "[5]; 10 mg/kg, seventh dose, time 6 (Fig4c)", "result": "7820.236 and 14817.670 and 9035.189"}, {"measurement": "Free SC-919 levels", "setting": "[6]; animal studies using rats and monkeys, reviewer response", "result": "below 0.05 μM"}, {"measurement": "Plasma concentration of SC-919", "setting": "[6]; normal rats, 1 mg/kg oral, time 1, individual animals (Fig3a), 1 mg/kg", "result": "1942.907 and 1856.710 and 1476.530"}, {"measurement": "Plasma concentration of SC-919", "setting": "[6]; normal rats, 1 mg/kg oral, time 2 (Fig3a), 1 mg/kg", "result": "2011.947 and 2121.932 and 1778.126"}, {"measurement": "Plasma concentration of SC-919", "setting": "[6]; normal rats, 1 mg/kg oral, time 4 (Fig3a), 1 mg/kg", "result": "2195.083 and 2444.564 and 1949.961"}, {"measurement": "Plasma concentration of SC-919", "setting": "[6]; normal rats, 1 mg/kg oral, time 8 (Fig3a), 1 mg/kg", "result": "1948.434 and 2469.995 and 1783.145"}, {"measurement": "Plasma concentration of SC-919", "setting": "[6]; normal rats, 3 mg/kg oral, time 1 (Fig3a), 3 mg/kg", "result": "4153.987 and 3662.163 and 4004.199"}, {"measurement": "Plasma concentration of SC-919", "setting": "[6]; normal rats, 3 mg/kg oral, time 2 (Fig3a), 3 mg/kg", "result": "5074.332 and 4401.713 and 4372.837"}, {"measurement": "Plasma concentration of SC-919", "setting": "[6]; normal rats, 3 mg/kg oral, time 4 (Fig3a), 3 mg/kg", "result": "5790.125 and 5489.252 and 5879.739"}, {"measurement": "Plasma concentration of SC-919", "setting": "[6]; normal rats, 3 mg/kg oral, time 8 (Fig3a), 3 mg/kg", "result": "6166.814 and 6363.863 and 4651.047"}, {"measurement": "Plasma concentration of SC-919", "setting": "[6]; normal rats, 10 mg/kg oral, time 1 (Fig3a), 10 mg/kg", "result": "11886.470 and 10328.550 and 8429.354"}, {"measurement": "Plasma concentration of SC-919", "setting": "[6]; normal rats, 10 mg/kg oral, time 2 (Fig3a), 10 mg/kg", "result": "13647.120 and 11744.460 and 11378.370"}, {"measurement": "Plasma concentration of SC-919", "setting": "[6]; normal rats, 10 mg/kg oral, time 4 (Fig3a), 10 mg/kg", "result": "14060.780 and 13051.160 and 10832.720"}, {"measurement": "Plasma concentration of SC-919", "setting": "[6]; normal rats, 10 mg/kg oral, time 8 (Fig3a), 10 mg/kg", "result": "14559.520 and 13008.450 and 10214.420"}, {"measurement": "Plasma concentration of SC-919", "setting": "[6]; normal rats, 10 mg/kg oral, time 24 (Fig3a), 10 mg/kg", "result": "14337.480 and 9820.569 and 8024.378"}, {"measurement": "Plasma SC-919 concentrations", "setting": "[6]; normal rats, oral administration, in words", "result": "increased in a dose-dependent manner"}]}, {"compound": "O=[N+]([O-])c1ccc(CNc2nc(NCc3cccc(C(F)(F)F)c3)nc3nc[nH]c23)cc1", "note": "[TNP, N2-(m-(trifluoromethyl)benzyl) N6-(p-nitrobenzyl)purine]", "values": [{"measurement": "IC50", "setting": "human IP6K2", "result": "0.85 ± 0.33", "unit": "µM"}, {"measurement": "IC50", "setting": "human IP6K1", "result": "0.27 ± 0.1", "unit": "µM"}, {"measurement": "IC50", "setting": "human IP6K3", "result": "0.26 ± 0.021", "unit": "µM"}]}]}
